# Laboratory results: patent publication US20130037709A1, “Method for Clinically Monitoring Niacin and Niacin Metabolites in Serum or Plasma” (priority 2010, published 2013)
# How the values were obtained:
# [1] = Long term storage in tubes (glass vs polypropylene); format: in vitro ADME
# Text: Most preferred are Vacutainer tubes containing lithium-heparin as an anticoagulant.
# Stability in plasma = test: Stability in plasma
# Protocol: (§1) Nicotinic acid, nicotinamide and nicotinuric acid are stable in plasma when frozen (at −20±5° C.) for 64 days and after 3 freeze/thaw cycles. When kept at room temperature, nicotinic acid in plasma becomes unstable after 24 hours.
# [2] = Protocol: as §1
# Remark: listed apart in the source
# [3] = test system: NAD and NADP in whole blood; conditions: individuals undergoing niacin therapy; average pretherapy value 175; cited from earlier work
Structure (SMILES),change in concentration on long term storage in polypropylene tubes [1],time stable in plasma when frozen (Stability in plasma; 64 days) [days],stability in plasma after freeze/thaw cycles (Stability in plasma; plasma),stability in fresh whole blood [2],time after which unstable in plasma at room temperature (Stability in plasma; 24 hours) [h],time stable in serum when refrigerated (refrigerated) [days],time stable in serum at room temperature (room temperature) [days],average niacin number after niacin supplements [3],"stability in plasma after freeze/thaw cycles (Stability in plasma; plasma, after 3 freeze/thaw cycles)","time stable in plasma when frozen (Stability in plasma; plasma, frozen at −20±5° C.) [days]"
NC(=O)c1cccnc1 [nicotinamide],significant changes in the concentration,64,stable,–,–,–,–,–,–,–
"O=C(O)c1cccnc1 [nicotinic acid, pyridine 3-carboxylic acid]",–,64,stable,neither nicotinic acid nor the active metabolites were stable,24,15,15,665,–,–
O=C(O)CNC(=O)c1cccnc1 [nicotinuric acid],–,–,–,–,–,–,–,–,stable,64
